MIC data for 17 compounds are collected here from ChEMBL document CHEMBL4680273, “Teixobactin: A Paving Stone toward a New Class of Antibiotics?” (2020).

Molecules are shown by their SMILES. In brackets after ≈: the same amount, converted by molar mass. Where a SMILES comes first, the peptide text is derived from it. Bridges are numbered along the chain shown (N, C = ends). [ ]: non-standard residue; d: D form. d(aIle) = CC[C@H](C)[C@@H](N)C(=O)O; dNMeF = CN[C@H](Cc1ccccc1)C(=O)O

Holding throughout (format): functional
Assay [1] relates to Staphylococcus aureus. Nature of the assay: Antibacterial activity against methicillin resistant Staphylococcus aureus ATCC 33591 incubated for 24 hrs.
Assay [2] deals with Bacillus subtilis. The assay is described as follows: Antibacterial activity against Bacillus subtilis 168 incubated for 24 hrs.
Assay [3] relates to Staphylococcus aureus. The assay is described as follows: Antibacterial activity against methicillin resistant Staphylococcus aureus.
Assay [4] deals with Staphylococcus aureus. Nature of the assay: Antibacterial activity against Staphylococcus aureus ATCC 29213.
The subject of assay [5] is Bacillus subtilis. The assay is described as follows: Antibacterial activity against Bacillus subtilis ATCC 6051 incubated for 16 hrs by UV/Visible absorbance method.
Assay [6] concerns Staphylococcus aureus. The assay is described as follows: Antibacterial activity against Staphylococcus aureus ATCC 29213 incubated for 16 hrs by UV/Visible absorbance method.
Assay [7] deals with Staphylococcus aureus. Nature of the assay: Antibacterial activity against Staphylococcus aureus ATCC 29213 incubated for 24 hrs by CLSI-based broth microdilution method. For orientation: Broth dilution looks for growth in wells or tubes with falling amounts of substance.

Broadly, the MIC is the least concentration at which growth counts as inhibited. Turning to `CC[C@H](C)[C@H](NC(=O)[C@@H](Cc1ccccc1)NC)C(=O)N[C@@H](CO)C(=O)N[C@H](CCC(N)=O)C(=O)N[C@@H](C(=O)N[C@H](C(=O)N[C@@H](CO)C(=O)N[C@H]1C(=O)N[C@@H](C)C(=O)N[C@@H](CCCN)C(=O)N[C@@H]([C@@H](C)CC)C(=O)O[C@H]1C)[C@@H](C)CC)[C@@H](C)CC`, the values for the MIC against Staphylococcus aureus [1] and in the assay with Bacillus subtilis [2] were 2 µg/mL (≈ 1.66 µM) and 0.25 µg/mL (≈ 0.208 µM), respectively. As to `CC[C@H](C)[C@H](NC(=O)[C@@H](Cc1ccccc1)NC)C(=O)N[C@@H](C)C(=O)N[C@H](CCC(N)=O)C(=O)N[C@@H](C(=O)N[C@H](C(=O)N[C@@H](CO)C(=O)N[C@H]1C(=O)N[C@@H](C)C(=O)N[C@@H](CCCCN)C(=O)N[C@@H]([C@@H](C)CC)C(=O)O[C@H]1C)[C@@H](C)CC)[C@@H](C)CC`, the MIC was 1 µg/mL (≈ 0.833 µM) against Staphylococcus aureus [3] and 0.5 µg/mL (≈ 0.416 µM) in the assay on Staphylococcus aureus [4]. `CC[C@H](C)[C@H](NC(=O)[C@@H](Cc1ccccc1)NC)C(=O)N[C@@H](CO)C(=O)N[C@H](CCC(N)=O)C(=O)N[C@@H](C(=O)N[C@H](C(=O)N[C@@H](CO)C(=O)N[C@H]1C(=O)N[C@@H](C)C(=O)N[C@@H](CCCCNC(=N)N)C(=O)N[C@@H]([C@@H](C)CC)C(=O)O[C@H]1C)[C@@H](C)CC)[C@@H](C)CC`: the MIC in the assay on Staphylococcus aureus [1] is 1 µg/mL (≈ 0.795 µM); in the assay on Bacillus subtilis [2], 0.125 µg/mL (≈ 0.0993 µM).

For the compound `CC[C@H](C)[C@H](NC(=O)[C@@H](Cc1ccccc1)NC)C(=O)N[C@@H](CO)C(=O)N[C@H](CCC(N)=O)C(=O)N[C@@H](C(=O)N[C@H](C(=O)N[C@@H](CO)C(=O)N[C@H]1C(=O)N[C@@H](CCCCN)C(=O)N[C@@H](CCCNC(=N)N)C(=O)N[C@@H]([C@@H](C)CC)C(=O)O[C@H]1C)[C@@H](C)CC)[C@@H](C)CC`, the MIC against Staphylococcus aureus [4] turned out to be 6 µg/mL (≈ 4.61 µM); in the assay with Bacillus subtilis [5], 1 µg/mL (≈ 0.768 µM). As for `CC[C@H](C)[C@H](NC(=O)[C@@H](Cc1ccccc1)NC)C(=O)N[C@@H](CO)C(=O)N[C@H](CCC(N)=O)C(=O)N[C@@H](C(=O)N[C@H](C(=O)N[C@@H](CO)C(=O)N[C@H]1C(=O)N[C@@H](C)C(=O)N[C@@H](CCN)C(=O)N[C@@H]([C@@H](C)CC)C(=O)O[C@H]1C)[C@@H](C)CC)[C@@H](C)CC`, the MIC against Staphylococcus aureus [1] came to 2 µg/mL (≈ 1.68 µM); against Bacillus subtilis [2], 1 µg/mL (≈ 0.841 µM).

Consider `CC[C@H](C)[C@H](NC(=O)[C@@H](Cc1ccccc1)NC)C(=O)N[C@@H](CO)C(=O)N[C@H](C)C(=O)N[C@@H](C(=O)N[C@H](C(=O)N[C@@H](C)C(=O)N[C@H]1C(=O)N[C@@H](C)C(=O)N[C@@H](CCCCN)C(=O)N[C@@H]([C@@H](C)CC)C(=O)O[C@H]1C)[C@@H](C)CC)[C@@H](C)CC`, for which the MIC against Staphylococcus aureus [6] was found to be 1 µg/mL (≈ 0.875 µM); against Bacillus subtilis [5] it was 4 µg/mL (≈ 3.5 µM).

As for `CC[C@H](C)[C@H](NC(=O)[C@@H](Cc1ccccc1)NC)C(=O)N[C@@H](CO)C(=O)N[C@H](CCC(N)=O)C(=O)N[C@@H](C(=O)N[C@H](C(=O)N[C@@H](CO)C(=O)N[C@H]1C(=O)N[C@@H](C)C(=O)N[C@@H](CCCCN)C(=O)N[C@@H]([C@@H](C)CC)C(=O)O[C@H]1C)[C@@H](C)CC)[C@@H](C)CC`, the MIC was 1 µg/mL (≈ 0.822 µM) against Staphylococcus aureus [1] and 0.25 µg/mL (≈ 0.206 µM) in the assay on Bacillus subtilis [2].

As to `CC[C@H](C)[C@H](NC(=O)[C@@H](Cc1ccccc1)NC)C(=O)N[C@@H](CO)C(=O)N[C@H](CCCCN)C(=O)N[C@@H](C(=O)N[C@H](C(=O)N[C@@H](C)C(=O)N[C@H]1C(=O)N[C@@H](C)C(=O)NC(CCCN)C(=O)N[C@@H]([C@@H](C)CC)C(=O)O[C@H]1C)[C@@H](C)CC)[C@@H](C)CC` (stereo not given in full), the MIC in the assay on Staphylococcus aureus [6] and against Bacillus subtilis [5] was 2 µg/mL (≈ 1.69 µM) throughout. `CC[C@H](C)[C@H](NC(=O)[C@@H](Cc1ccccc1)NC)C(=O)N[C@@H](CO)C(=O)N[C@H](CCC(N)=O)C(=O)N[C@@H](C(=O)N[C@H](C(=O)N[C@@H](CO)C(=O)N[C@H]1C(=O)N[C@@H](C)C(=O)NC(CN)C(=O)N[C@@H]([C@@H](C)CC)C(=O)O[C@H]1C)[C@@H](C)CC)[C@@H](C)CC` (stereo not given in full): the MIC in the assay with Staphylococcus aureus [1] turned out to be 4 µg/mL (≈ 3.41 µM); in the assay on Bacillus subtilis [2], 0.5 µg/mL (≈ 0.426 µM). The corresponding values for `CC[C@H](C)[C@H](NC(=O)[C@@H](Cc1ccccc1)NC)C(=O)N[C@@H](CO)C(=O)N[C@H](CCC(N)=O)C(=O)N[C@@H](C(=O)N[C@H](C(=O)N[C@@H](CO)C(=O)N[C@H]1C(=O)N[C@@H](C)C(=O)N[C@@H](CNC(=N)N)C(=O)N[C@@H]([C@@H](C)CC)C(=O)O[C@H]1C)[C@@H](C)CC)[C@@H](C)CC` are 4 µg/mL (≈ 3.29 µM) and 1 µg/mL (≈ 0.822 µM).

For `CC[C@H](C)[C@H](NC(=O)[C@@H](Cc1ccccc1)NC)C(=O)N[C@@H](CO)C(=O)N[C@H](CCC(N)=O)C(=O)N[C@@H](C(=O)N[C@H](C(=O)N[C@@H](C)C(=O)N[C@H]1C(=O)N[C@@H](C)C(=O)N[C@@H](CCCCN)C(=O)N[C@@H]([C@@H](C)CC)C(=O)O[C@H]1C)[C@@H](C)CC)[C@@H](C)CC`, the MIC with Staphylococcus aureus [3] and with Staphylococcus aureus [4] was 32 µg/mL (≈ 26.7 µM) in each case.

With `CC[C@H](C)[C@H](NC(=O)[C@H](Cc1ccccc1)NC)C(=O)N[C@@H](CO)C(=O)N[C@H](CCC(N)=O)C(=O)N[C@@H](C(=O)N[C@H](C(=O)N[C@@H](CO)C(=O)N[C@H]1C(=O)N[C@@H](C)C(=O)N[C@@H](CCCNC(=N)N)C(=O)N[C@@H]([C@@H](C)CC)C(=O)O[C@H]1C)[C@@H](C)CC)[C@@H](C)CC`, the lowest concentration to inhibit growth against Staphylococcus aureus [7] (MIC) was 2 µg/mL (≈ 1.61 µM).

For `CC[C@H](C)[C@H](NC(=O)[C@@H](N)Cc1ccccc1)C(=O)N[C@@H](CO)C(=O)N[C@H](CCC(N)=O)C(=O)N[C@@H](C(=O)N[C@H](C(=O)N[C@@H](CO)C(=O)N[C@H]1C(=O)N[C@@H](C)C(=O)N[C@@H](CCCNC(=N)N)C(=O)N[C@@H]([C@@H](C)CC)C(=O)O[C@H]1C)[C@@H](C)CC)[C@@H](C)CC`, in the assay on Staphylococcus aureus [7], the MIC came out at 2 µg/mL (≈ 1.63 µM). Consider `CC[C@H](C)[C@H](NC(=O)[C@@H](Cc1ccccc1)NC(=O)c1ccccc1)C(=O)N[C@@H](CO)C(=O)N[C@H](CCC(N)=O)C(=O)N[C@@H](C(=O)N[C@H](C(=O)N[C@@H](CO)C(=O)N[C@H]1C(=O)N[C@@H](C)C(=O)N[C@@H](CCCNC(=N)N)C(=O)N[C@@H]([C@@H](C)CC)C(=O)O[C@H]1C)[C@@H](C)CC)[C@@H](C)CC`, for which the MIC in the assay with Staphylococcus aureus [7] stood at 8 µg/mL (≈ 5.99 µM). Regarding `CC[C@H](C)[C@H](NC(=O)[C@@H](Cc1ccccc1)NC)C(=O)N[C@@H](CO)C(=O)N[C@H](CCC(N)=O)C(=O)N[C@@H](C(=O)N[C@H](C(=O)N[C@@H](CO)C(=O)N[C@H]1C(=O)N[C@@H](C)C(=O)N[C@@H](CCNC(=N)N)C(=O)N[C@@H]([C@@H](C)CC)C(=O)O[C@H]1C)[C@@H](C)CC)[C@@H](C)CC`, the MIC in the assay with Staphylococcus aureus [1] came out at 1 µg/mL (≈ 0.813 µM); with Bacillus subtilis [2], 0.5 µg/mL (≈ 0.406 µM). `CC[C@H](C)[C@H](NC(=O)[C@@H](Cc1ccccc1)N(C)C)C(=O)N[C@@H](CO)C(=O)N[C@H](CCC(N)=O)C(=O)N[C@@H](C(=O)N[C@H](C(=O)N[C@@H](CO)C(=O)N[C@H]1C(=O)N[C@@H](C)C(=O)N[C@@H](CCCNC(=N)N)C(=O)N[C@@H]([C@@H](C)CC)C(=O)O[C@H]1C)[C@@H](C)CC)[C@@H](C)CC`: 16 µg/mL (≈ 12.7 µM) was the least that counted as inhibitory in the assay on Staphylococcus aureus [7] (MIC).

On to `CC[C@H](C)[C@H](NC(=O)[C@@H](Cc1ccccc1)NC)C(=O)N[C@@H](CO)C(=O)N[C@H](CCC(N)=O)C(=O)N[C@@H](C(=O)N[C@H](C(=O)N[C@@H](CO)C(=O)N[C@H]1C(=O)N[C@@H](C)C(=O)N[C@@H](CCCCN)C(=O)N[C@@H](C)C(=O)O[C@H]1C)[C@@H](C)CC)[C@@H](C)CC` (H-[dNMeF]IS[dQ][d(aIle)]IS[dT]AKA; ester 8-C), for which the figures for the MIC in the assay on Staphylococcus aureus [6] and against Bacillus subtilis [5] were 4 µg/mL (≈ 3.41 µM) and 8 µg/mL (≈ 6.81 µM), respectively.
